Reference: paper PMC5974751, “NKp44-Derived Peptide Binds Proliferating Cell Nuclear Antigen and Mediates Tumor Cell Death” (Frontiers in Immunology, 2018)

How the values were obtained:
[1] = tested on: recombinant human PCNA (hPCNA); assay: ELISA binding of biotinylated NKp44-derived peptides to plate-bound recombinant PCNA; settings: biotinylated peptide, 0–7.24 µM (Figure 1A), streptavidin-HRP, TMB, O.D. 650 nm
Description: The pET-28 or pMAL-c2x vectors were used to produce soluble human PCNA (hPCNA) in Rosetta™ 2 (DE3) cells. Plasmids containing the mRNA sequence of PCNA or TL1A, APO-E3, HNF4 were transformed into Rosetta™ 2 cells via heat shock and grown on LB agar plates with kanamycin and chloramphenicol. A fresh colony of transformed bacteria was grown overnight in a 5 ml of LB with kanamycin and chloramphenicol an incubator shaker set to 37°C and at 250 rpm. The next day, bacteria cells were diluted 1:100 into a 500 ml of LB with kanamycin and chloramphenicol (to discard dead cells) and grown to an optical density (O.D.) of 0.6–0.8 (λ = 650 nm). Isopropyl β-D-1-thiogalactopyranoside (0.5 mM) was added for the induction of the PCNA production, and cells were further incubated for 4 h at 26°C (hPCNA). Cells were then centrifuged and the pellet was resuspended with solution A (20 mM Tris–HCl pH 8.0, 0.5 M NaCl, 20 mM imidazole), sonicated six times (20 s with 40 s intervals) and sieved through […] (Sartorius Stedim Biotech) filter before loaded on a His-tag or Amylose resin beads. Purification of His-tagged proteins was done using a Gravity-flow Column with “HisPur™ Ni-NTA Resin” Bead kit (Thermo-Scientific) (binding capacity ≤ 60 mg of a 28 kDa 6xHis-tagged protein from a bacterial source per milliliter of settled resin) according to Kits Protocol. Purification of MBP-tagged proteins was done using the Amylose resin beads (Catalog # E8035S).
To determine the interaction between NKp44-derived peptides and PCNA, ELISA plates were coated overnight at 4°C with 2 µg/ml of the recombinant PCNA or TLA1 ([49]), APO-E3 ([50]), HNF4 ([4]), rhFc, rhNKp44-hFc ([12]), rhNKp46-hFc ([51]), and PBS 1× (negative controls). Blocking buffer (PBS + 2.5% skim milk) was applied for 2 h at room temperature, after that the plates were incubated with 0–8 µM of biotinylated NKp44-derived peptides or PBS 1× (background control) for 2 h at room temperature. NKp44-derived peptides binding to PCNA was detected using horseradish peroxidase (HRP)-conjugated to streptavidin (1 h at 1:500 dilution). Following washing, TMB (DAKO, S1599) was added. O.D. was read at 650 nm (Thermo Electron Corporation Multiskan Spectrum). Between each step, wells were washed three times with PBS containing 0.05% Tween 20 (PBST).

[2] = tested on: NK92-44-1 cells (NK92 overexpressing NKp44-1 splice variant); assay: IFNγ secretion assay of NK92-44-1 cells co-incubated with PANC-1 cells; format: cell-based, human; settings: NK92-44-1 with HLA-I positive PANC-1, E:T 1:2; peptide 10 or 20 µg/well
Description: IFNγ secretion assay and ELISA assay were done as previously described ([11], [12]). NKp44-pep8, pep9, and pep10 (10 or 20 µg) were added to the IFNγ secretion assay.
Figure 1 Recognition of recombinant human PCNA (hPCNA) by NKp44-derived pep8 (NKp44-pep8). (A) ELISA assay representing the binding curve of biotinylated NKp44-derived pep5, pep8, and pep10 at a peptide concentration range of 0–7.24 µM to plate bond hPCNA. (B) IFNγ secretion assay of NK92-44-1 cells co-incubate with the HLA positive cell line PANC-1 (E:T ration of 1:2) in the presence of NKp44-pep8 (10 or 20 μg/well), NKp44-derived pep5 was used as negative control. Note that when we apply to NK92-44-1 pep8 (without target cells), activation of IFNγ secretion is minimal and less/similar to the observed activation when applying the pep5 negative control. (C) ELISA assay of blocking NKp44–proliferating cell nuclear antigen (PCNA) interaction via NKp44-pep8. NKp44-derived pep5 was used as a negative control. No peptide represents the maximal binding capacity of NKp44 to hPCNA. (D) ELISA assay showing the specific recognition of NKp44-pep8 (5 µg/ml) to hPCNA relative to TL1A, APO-E3, HNF4, NKp44-Ig, hNKp46-Ig, hFc. (E) ProteOn array showing the binding of hPCNA at protein concentration range of 0–250 nM to bond NKp44-pep8. 0 nM (X base-line), 15.6 nM (yellow), 31.2 (purple), 62.5 nM (green), 125 nM (blue), and 250 nM (red).

[3] = tested on: NKp44–PCNA interaction; assay: ELISA blocking of NKp44-hFc interaction with PCNA; format: binding; settings: peptide 0–10 µM, NKp44-hFc 80 nM, anti-human IgG-HRP, O.D. 650 nm, negative control pep5
Description: To determine the ability of NKp44-pep8 to block NKp44-hFc interaction with PCNA, ELISA plates were coated overnight at 4°C with 2 µg/ml of the recombinant PCNA, blocking buffer (PBS + 2.5% skim milk) was applied for 2 h at room temperature, after which the plates were incubated with 0–10 µM of biotinylated NKp44-derived peptides or PBS 1× (100 μl/well, background control) for 2 h at room temperature and then NKp44-hFc (80 nM, 20 µl/well) was added without washing for 1 h at room temperature. NKp44-hFc binding to PCNA was detected using HRP conjugated to antihuman IgG (1 h at 1:400 dilution 100 μl/well). Following washing, TMB (100 μl/well DAKO, S1599) was added. O.D. was read at 650 nm (Thermo Electron Corporation Multiskan Spectrum). Between each step, wells were washed three times with 200 μl/well PBS 1× containing 0.05% Tween 20 (PBST).

Sequence: VTSSKPRTVAWTSRFTIWAA [pep10, NKp44-derived 20mer peptide, amino acids 67–86]
- binding to recombinant hPCNA [1]: also bound to PCNA but to a lesser extent as compared with pep8
- IFNγ secretion / NK92 cell function in presence of peptide [2]: but not pep10 could block NKp44–PCNA interaction and upregulate NK92 cell function
- inhibition of rhNKp44 binding to PCNA [3]: but not pep10 could block NKp44–PCNA interaction
